Like-named read-outs stand apart in the source and are kept apart here.
Legend:
[1] = target: T1, OCT2 (Homo sapiens, UniProt O15244); experiment: Inhibition of model substrate uptake in OCT2-overexpressing HEK293 cells
T1 sequence (O15244 1-555): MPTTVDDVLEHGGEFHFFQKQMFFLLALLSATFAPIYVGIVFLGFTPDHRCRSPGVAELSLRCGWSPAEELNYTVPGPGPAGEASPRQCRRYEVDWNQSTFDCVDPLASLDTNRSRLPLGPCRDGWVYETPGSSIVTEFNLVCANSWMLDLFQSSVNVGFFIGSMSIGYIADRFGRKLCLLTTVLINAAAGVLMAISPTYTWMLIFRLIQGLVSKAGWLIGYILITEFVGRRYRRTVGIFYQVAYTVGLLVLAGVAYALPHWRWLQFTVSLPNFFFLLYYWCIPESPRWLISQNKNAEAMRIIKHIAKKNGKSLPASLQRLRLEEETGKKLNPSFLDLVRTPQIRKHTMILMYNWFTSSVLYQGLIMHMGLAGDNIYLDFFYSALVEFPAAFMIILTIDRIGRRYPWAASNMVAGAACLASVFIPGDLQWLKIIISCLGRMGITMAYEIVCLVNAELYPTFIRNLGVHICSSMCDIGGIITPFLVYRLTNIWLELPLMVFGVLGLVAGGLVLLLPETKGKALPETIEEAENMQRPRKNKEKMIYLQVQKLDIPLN
Method: (§1) All experiments were carried out in transporter-overexpressing HEK293 cells. OCT1-, OCT2-, NET-, DAT-, and SERT-overexpressing cells as well as the empty-vector transfected control cell line were generated as described earlier,[26]−[28] whereas the OCT3-overexpressing HEK293 cells were generous gift of from Drs. Koepsell and Gorbulev (University of Würzburg, Germany). All cells were cultivated in Dulbecco’s modified Eagle’s medium (DMEM) supplemented with 10% (v/v) FCS, penicillin (100 U/mL), and streptomycin (100 μg/mL) and kept in culture for no longer than 30 passages.
(§2) As for the transport experiments, 300,000 HEK293 cells were plated in poly-D-lysine-coated 24-well plates 2 days ahead of the experiment. On every plate, two wells of empty vector (EV)-transfected cells were used as a control to account for the passive influx of the model substrate, and two wells of transporter-overexpressing cells were used to determine the noninhibited uptake of the model substrate. Cells were initially washed once with 37 °C HBSS+ and then incubated with 2 μM model substrate (0.2 μM for MPP^+ uptake by MATs) with and without 20 μM inhibitor for 5 min. For concentration-dependent inhibition experiments, the cells were incubated with increasing inhibitor concentrations. The incubation was terminated by aspiration of the buffer before cells were washed twice with ice-cold HBSS+ and lysed in 80% acetonitrile. Cell lysates were transferred into a black 96-well plate for the fluorescence measurement of ASP^+ or used for sample preparation for LC–MS/MS analysis. […] Fluorescence quantification was performed in technical duplicates.
(§3) Transporter-mediated net uptake was calculated as the difference between uptake in transporter-overexpressing cells and that in the empty-vector-transfected control. […] Vmax is the maximum transport velocity, while Km is defined as the substance concentration that is required to reach half of vmax. The ratio of vmax over Km is termed intrinsic clearance Clint. For inhibition experiments, the transport activity was calculated by using the following equation [drawing 1]
(§4) SubstrateEV refers to the passive uptake of model substrates into the control cells and substratenoninhibited is the uptake in transporter-overexpressing cells without the presence of any inhibitor. The percent inhibition values are then calculated as described in the following [drawing 2]
(§5) For concentration inhibition experiments, the transporter activity was plotted against the log10 of inhibitor concentrations, and the data were fitted by the following equation to determine IC50 values [drawing 3]
(§6) Y refers to the transporter activity, whereas Ymax is the maximum and Ymin is the minimal transporter activity. X is the log10 of inhibitor concentrations, IC50 is the half-maximal inhibitory concentration, and hill slope is the slope factor.

[2] = target: T2, OCT3 (Homo sapiens, UniProt O75751); experiment: Inhibition of model substrate uptake in OCT3-overexpressing HEK293 cells; assay type: cell-based
T2 construct: expressed in transfected cells; host or cells: HEK293
T2 sequence (O75751 1-556): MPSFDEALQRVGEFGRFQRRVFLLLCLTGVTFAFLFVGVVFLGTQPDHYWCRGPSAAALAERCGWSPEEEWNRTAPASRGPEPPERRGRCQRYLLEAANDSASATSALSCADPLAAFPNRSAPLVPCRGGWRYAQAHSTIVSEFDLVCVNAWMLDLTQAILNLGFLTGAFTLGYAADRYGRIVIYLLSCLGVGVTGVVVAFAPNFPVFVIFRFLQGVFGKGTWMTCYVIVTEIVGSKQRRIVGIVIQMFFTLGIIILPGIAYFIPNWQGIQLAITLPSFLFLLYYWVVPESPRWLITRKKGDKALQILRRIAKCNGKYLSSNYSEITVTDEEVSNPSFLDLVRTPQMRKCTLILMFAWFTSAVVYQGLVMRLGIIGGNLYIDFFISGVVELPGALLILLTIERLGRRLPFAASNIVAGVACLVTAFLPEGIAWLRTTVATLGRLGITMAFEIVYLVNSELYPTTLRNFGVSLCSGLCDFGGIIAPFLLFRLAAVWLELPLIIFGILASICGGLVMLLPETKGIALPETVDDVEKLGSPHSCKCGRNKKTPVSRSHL
Method: as §1, §2, §3, §4, §5, §6

[3] = target: T3, OCT1 (Homo sapiens, UniProt O15245); experiment: Inhibition of model substrate uptake in OCT1-overexpressing HEK293 cells; assay type: cell-based; design: expressed in transfected cells; host or cells: HEK293; conditions: for inhibition at 5 min, 20 μM: OCT1-overexpressing HEK293 cells
T3 sequence (O15245 1-554): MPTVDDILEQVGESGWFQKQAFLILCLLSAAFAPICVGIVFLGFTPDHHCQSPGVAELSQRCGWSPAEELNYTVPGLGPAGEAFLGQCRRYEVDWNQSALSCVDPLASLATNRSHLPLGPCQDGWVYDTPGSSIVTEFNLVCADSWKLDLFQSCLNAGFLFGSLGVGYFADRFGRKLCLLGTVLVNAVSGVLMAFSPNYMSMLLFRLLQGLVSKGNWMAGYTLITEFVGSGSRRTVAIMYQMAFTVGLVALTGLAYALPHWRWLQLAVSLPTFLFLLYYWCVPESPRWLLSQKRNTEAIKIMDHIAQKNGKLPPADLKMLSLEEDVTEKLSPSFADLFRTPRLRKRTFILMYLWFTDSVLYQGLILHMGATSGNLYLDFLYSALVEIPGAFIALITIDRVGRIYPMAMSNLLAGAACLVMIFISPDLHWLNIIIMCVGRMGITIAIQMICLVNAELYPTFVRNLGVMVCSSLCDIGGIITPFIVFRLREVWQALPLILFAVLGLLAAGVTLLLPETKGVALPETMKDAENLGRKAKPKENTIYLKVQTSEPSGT
Method: Koepsell and Gorbulev (University of Würzburg, Germany).
Fluorescence quantification was performed in technical duplicates.

[4] = IC50, OCT2, Table S5, 2 μM ASP+ as model substrate, 5 min
[5] = OCT2, 20 μM inhibitor, 2 μM N-ethyllidocaine, 5 min
[6] = HEK293, 5 min, read-out: (S)-Zolmitriptan inhibition [%]
[7] = HEK293, 5 min, read-out: (S,S)-Ethambutol inhibition [%]
[8] = HEK293, OCT3, 20 μM inhibitor, 2 μM ASP+, 5 min, read-out: ASP+ inhibition [%]
[9] = human, OCT2-overexpressing HEK293 cells, pH 7.4, probe (S,S)-ethambutol (2 μM), (S,S)-Ethambutol inhibition [%], OCT2, 20 μM inhibitor, 2 μM (S,S)-ethambutol, 5 min
[10] = human, OCT2-overexpressing HEK293 cells, pH 7.4, probe ASP+ (2 μM), ASP+ inhibition [%], OCT2, 20 μM inhibitor, 2 μM ASP+, 5 min
[11] = HEK293, 5 min, read-out: (S,S)-Ethambutol inhibition [%], OCT3, 20 μM inhibitor, 2 μM (S,S)-ethambutol, 5 min
[12] = human, pH 7.4, probe (S,S)-ethambutol (2 μM), (S,S)-Ethambutol inhibition [%], OCT1, 20 μM inhibitor, 2 μM (S,S)-ethambutol, 5 min
[13] = human, pH 7.4, probe ASP+ (2 μM), OCT1, 20 μM inhibitor, 2 μM ASP+, 5 min, mean of three experiments, read-out: ASP+ inhibition [%]
[14] = human, pH 7.4, probe sumatriptan (2 μM), OCT1, 20 μM inhibitor, 2 μM sumatriptan, 5 min, read-out: Sumatriptan inhibition [%]
[15] = human, OCT2-overexpressing HEK293 cells, pH 7.4, probe N-ethyllidocaine (2 μM), N-Ethyllidocaine inhibition [%], OCT2, 20 μM inhibitor, 2 μM N-ethyllidocaine, 5 min

## C#CCN(C)[C@H](C)Cc1ccccc1 [(R)-Deprenyl]
[1]; [4]
  IC50: 2.4 µM
[1]; OCT2, 20 μM inhibitor, 2 μM ASP+, 5 min
  ASP+ inhibition [%]: 101.0%
[1]; [5]
  N-Ethyllidocaine inhibition [%]: 52.3%
[2]; [6]
  inhibition at 20 µM: 18%
[2]; [7]
  inhibition at 20 µM: 24.2%
[2]; [8]
  inhibition at 20 µM: 12.6%
[3]; OCT1, 20 μM inhibitor, 2 μM ASP+, 5 min, mean of three experiments
  ASP+ inhibition [%]: 21.6%
[3]; human, pH 7.4
  Sumatriptan inhibition [%]: 62.3%

## CN(C)CCO[C@](C)(c1ccccc1)c1ccccn1 [(R)-Doxylamine]
[1]; [5]
  N-Ethyllidocaine inhibition [%]: -13.8%
[1]; [9]
  inhibition at 5 min, 20 μM: 26.2%
[1]; [10]
  inhibition at 5 min, 20 μM: 73.2%
[2]; HEK293, 5 min, read-out: (S)-Zolmitriptan inhibition [%], OCT3, 20 μM inhibitor, 2 μM (S)-zolmitriptan, 5 min
  inhibition at 20 µM: 17.7%
[2]; [11]
  inhibition at 20 µM: 23.4%
[2]; [8]
  inhibition at 20 µM: 12.2%
[3]; OCT1, Table S5, 2 μM ASP+ or ethambutol as model substrate, 5 min, read-out: IC50
  IC50: 22.3 µM
[3]; [12]
  inhibition at 5 min, 20 μM: 96%
[3]; [13]
  inhibition at 5 min, 20 μM: 63.6%
[3]; [14]
  inhibition at 5 min, 20 μM: 90.8%

## OC[C@H](O)CN1CCN(c2ccccc2)CC1 [(R)-Dropropizine]
[1]; [4]
  IC50: 80.6 µM
[1]; human, OCT2-overexpressing HEK293 cells, pH 7.4
  selectivity ratio at 5 min: 1.4
[1]; [9]
  inhibition at 5 min, 20 μM: 28%
[1]; [10]
  inhibition at 5 min, 20 μM: 40.8%
[1]; [15]
  inhibition at 5 min, 20 μM: 8%
[2]; [11]
  inhibition at 20 µM: 5.8%
[2]; [8]
  inhibition at 20 µM: 26.4%
[2]; OCT3, 20 μM inhibitor, 2 μM (S)-zolmitriptan, 5 min
  (S)-Zolmitriptan inhibition [%]: -30.2%
[3]; [12]
  inhibition at 5 min, 20 μM: 30.1%
[3]; [13]
  inhibition at 5 min, 20 μM: 26.2%
[3]; [14]
  inhibition at 5 min, 20 μM: 41%

## CNCC[C@@H](Oc1cccc2ccccc12)c1cccs1 [(R)-Duloxetine]
[1]; IC50
  IC50: 25.3 µM
[1]; [9]
  inhibition at 5 min, 20 μM: 33.2%
[1]; [10]
  inhibition at 5 min, 20 μM: 53.3%
[1]; [15]
  inhibition at 5 min, 20 μM: 50.1%
[2]; [6]
  inhibition at 20 µM: 1.6%
[2]; [7]
  inhibition at 20 µM: 16.7%
[2]; HEK293, read-out: ASP+ inhibition [%]
  inhibition at 20 µM: 3.8%
[3]; [12]
  inhibition at 5 min, 20 μM: 85.1%
[3]; [13]
  inhibition at 5 min, 20 μM: 41.3%
[3]; [14]
  inhibition at 5 min, 20 μM: 86.8%
